Experimental data reported in publication PMC6888133, “Identification and Characterization of a Fatty Acid- and Retinoid-Binding Protein Gene (Ar-far-1) from the Chrysanthemum Foliar Nematode, Aphelenchoides ritzemabosi” (International Journal of Molecular Sciences, 2019).

Target: T1, rAr-FAR-1 (Ar-FAR-1) (Aphelenchoides ritzemabosi, UniProt A0A2D0WIZ9)
T1 construct: full-length 181 aa ORF with signal peptide (18 aa, cleavage Ala18/Glu19); E. coli BL21(DE3)
T1 sequence (A0A2D0WIZ9 1-181): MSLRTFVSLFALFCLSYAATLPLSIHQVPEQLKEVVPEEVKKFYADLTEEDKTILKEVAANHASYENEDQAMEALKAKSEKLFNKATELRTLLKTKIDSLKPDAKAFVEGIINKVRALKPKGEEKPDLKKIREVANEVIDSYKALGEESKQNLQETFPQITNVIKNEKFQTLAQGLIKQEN
Assay: fluorescence titration
Format: binding

CN(C)c1cccc2c(S(=O)(=O)NCCCCCCCCCCC(=O)O)cccc12 [DAUDA, 11-(5-dimethylaminonaphthalene-1-sulfonylamino) undecanoic acid]
Kd: 40.5 nM

CC1=C(/C=C/C(C)=C/C=C/C(C)=C/CO)C(C)(C)CCC1 [retinol]
Kd: 67.9 nM
